Data published in patent US20120115128A1, “SELECTIVE PROTEIN LABELING” (THE BOARD OF TRUSTEES OF THE UNIVERSITY OF ILLINOIS, priority 2009, published 2012).
Values after ≈ are worked out from the molar mass of the structure shown. Read-outs that look alike come from different tables or passages of the source. Each block holds one molecule with its values, some of them ahead of it.

What was measured:
[1] = system: E. coli (strain DH5α); test: E. coli growth inhibition assay (MIC on agar plates); type: cell-based; settings: for MIC: Escherichia coli, read-out: minimum inhibitory concentration (MIC)
Excerpt: E. coli growth inihibition assay. […] The minimal inhibitory concentration (MIC) was reported as the lowest concentration at which no colonies formed.

[2] = system: nucleus-targeted pfDHFR (K27E, C59R, S108N) soluble domain in NIH 3T3 fibroblast cells; settings: 500 nM, ca. 15 minutes
[3] = system: human leukocytes; settings: cited from earlier work
[4] = system: human cells; settings: cited from earlier work
[5] = target: eDHFR expressed on the cell surface of NIH3T3 fibroblasts (Escherichia coli, UniProt P0ABQ4); test: Labeling of cell surface-expressed eDHFR (pDisplay-eDHFR) on NIH3T3 fibroblasts, microscopy; type: cell-based; settings: 1 μM, 10 min, time-resolved imaging
[6] = target: T1, eDHFR (Escherichia coli, UniProt P0ABQ4); test: biochemical; parameters: species or system E. coli; settings: terbium-complexed probe 20 nM, purified eDHFR-GFP, non-linear least-squares fit; read-out: dissociation constant for binding to eDHFR
T1 construct: pRSETb-EGFP-eDHFR expressed the protein fusion […]-[EGFP]-GSGGSG-[eDHFR]; His6 leader of pRSETb ([…]) (N); made in house; host or cells: E. coli BL21 DE3 (pLysS)

[7] = target: T2, GFP-cldn1/tail (N-terminal fusion of EGFP to the C-terminal cytoplasmic domain, residues 187-211, of human … (human, UniProt O95832 187-211, not fully specified)); test: intermolecular TR-FRET microscopy in living MDCK cells; sensitized GFP emission at 520 nm
T2 construct: Expressed in living MDCK cells; GFP is the FRET acceptor; also called C-terminal cytoplasmic tail of claudin-1; not shown: enhanced GFP (EGFP) as encoded in vector pEGFP-C1 (Clontech)
T2 chain (looked up): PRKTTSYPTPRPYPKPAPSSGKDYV

[8] = target: T2, GFP-cldn1/tail (N-terminal fusion of …); test: intermolecular TR-FRET microscopy in living MDCK cells; reference pair ZO-1/PDZ1-eDHFR and GFP-cldn1/tailΔYV
[9] = target: GFP-cldn1/tailΔYV (GFP-cldn1/tail construct lacking the C-terminal YV motif) (human) (UniProt O95832); test: intermolecular TR-FRET microscopy in living MDCK cells; sensitized GFP emission at 520 nm

Molecule: CCOc1cc(Cc2cnc(N)nc2N)ccc1OCc1cc(OC)c(OCCCCC(=O)NCCOCCOCCNC(=O)OC(C)(C)C)c(OC)c1 [Compound 2a]
MIC ([1]; 37° C., 24 hours, lowest concentration at which no colonies formed): ~20 µM (≈ 15.1 µg/mL)
cell permeability (diffuse fluorescence) [2]: passively diffused into mammalian cells

MIC ([1]; 24 h): > 100 µM
Molecule: COc1cc(Cc2cnc(N)nc2N)cc(C#CCCCC(=O)O)c1OCCCCC(=O)NCCOCCOCCN [Compound 3a]
ability to cross the E. coli cell membrane (inferred from growth assay) [1]: cannot cross the cell membrane

Molecule: CN(Cc1cnc2nc(N)nc(N)c2n1)c1ccc(C(=O)N[C@@H](CCC(=O)O)C(=O)O)cc1 [MTX, Methotrexate]
concentration at which toxicity observed [3]: 2000 nM
extracellular concentration at which DNA damage has been observed [4]: 10 µM

Molecule: COc1cc(Cc2cnc(N)nc2N)cc(OC)c1OCCCCC(=O)NCCOCCOCCNC(=O)CN(CCN(CCN(CC(=O)O)CC(=O)Nc1ccc2c(C)cc(=O)[nH]c2c1)CC(=O)O)CC(=O)O [TMP-cDTPA]
cell-surface labelling of eDHFR, time-resolved mode [5]: not
Kd [6]: 9 ± 1.3 nM

fold difference in TR-FRET signal against GFP-cldn1/tailΔYV [8]: > 4 fold
B1: ZO-1/PDZ1-eDHFR (C-terminal fusion of eDHFR to the PDZ1 domain, residues 19-113, of human ZO-1) (other, human;Escherichia coli)
chain: MWEQHTVTLHRAPGFGFGIAISGGRDNPHFQSGETSIVISDVLKGGPAEGQLQENDRVAMVNGVSMDNVEHAFAVQQLRKSGKNAKITIRRKKKVQMISLIAALAVDRVIGMENAMPWNLPADLAWFKRNTLNKPVIMGRHTWESIGRPLPGRKNIILSSQPGTDDRVTWVKSVDEAIAACGDVPEIMVIGGGRVYEQFLPKAQKLYLTHIDAEVEGDTHFPDYEPDDWESVFSEFHDADAQNSHSYCFEILERR
notes: Built by inserting ZO-1 19-113 into pLL-1NLS in frame with eDHFR; also called PDZ1 domain of ZO-1
signal-to-noise ratio for intermolecular TR-FRET [7]: 6.3
signal-to-noise ratio for intermolecular TR-FRET [9]: 1.5
